In PMC3191323 (Journal of medicinal chemistry, 2011):

What was measured:
P. falciparum strain W2 = test: Malaria SYBR Green I-based fluorescence assay; type: cell-based; settings: Plasmodium falciparum, W2, 96 h, read-out: Antimalarial activity against P. falciparum IC50, W2
P. falciparum strain 3D7 = test: Malaria SYBR Green I-based fluorescence assay; type: cell-based, Plasmodium falciparum
P. falciparum (3D7) = test: Viable cell count; type: cell-based, Plasmodium falciparum; settings: 2xIC50, 72 h
P. falciparum = test: Flow cytometric analysis of parasite DNA replication and nuclear division; type: cell-based, Plasmodium falciparum; settings: 2xIC50, flow cytometry
[1] = tested on: HepG2 human hepatocellular liver carcinoma cells; test: Cytotoxicity in mammalian cells, lactate dehydrogenase assay; type: cell-based; settings: HepG2 vs P. falciparum

Compound `CCN(CC)CCCC(C)Nc1ccnc2cc(Cl)ccc12` (centres unmarked) [CQ, chloroquine, reference compound] has an IC50 (P. falciparum strain W2) of 70 ± 1 nM and an IC50 (P. falciparum strain 3D7; Plasmodium falciparum, 3D7, 96 h, read-out: Antimalarial activity against P. falciparum IC50, 3D7) of 9 ± 0.04 nM.

With `Cl.Cl.O=C(NCCCNCCCCCCCNCCCNC(=O)NCCC(c1ccccc1)c1ccccc1)NCCC(c1ccccc1)c1ccccc1` [Compound 9] the “Cytotoxic response: decrease in viable cell numbers (% parasitemia)” value (“Cytotoxic response: decrease … (% parasitemia)” for short) (P. falciparum (3D7)) was “significant cytotoxic response”.

For `Cl.Cl.S=C(NCCCNCCCCCCCNCCCNC(=S)NCCC(c1ccccc1)c1ccccc1)NCCC(c1ccccc1)c1ccccc1` [Compound 13], the “Cytotoxic response: decrease … (% parasitemia)” value (P. falciparum (3D7)) was “significant cytotoxic response”.

`Cl.Cl.S=C(NCCCNCCCCNCCCNC(=S)NCC(c1ccccc1)c1ccccc1)NCC(c1ccccc1)c1ccccc1` [Compound 15] was tested, and the “Cytotoxic response: decrease … (% parasitemia)” value (P. falciparum (3D7)) was “significant cytotoxic response”.

For `Cl.Cl.S=C(NCCCNCCCCCCCNCCCNC(=S)NCC(c1ccccc1)c1ccccc1)NCC(c1ccccc1)c1ccccc1` [Compound 16], the “Cytotoxic response: decrease … (% parasitemia)” value (P. falciparum (3D7)) was “significant cytotoxic response” and the “Effect on DNA replication and nuclear division” value (shortened to “Effect”) (P. falciparum) was “greatest inhibitory affect on DNA replication and nuclear division”.

`Cl.Cl.S=C(NCCCNCCCCNCCCNC(=S)NCc1ccccc1)NCc1ccccc1` [Compound 20] was tested, and the “Cytotoxic response: decrease … (% parasitemia)” value (P. falciparum (3D7)) was “not able to decrease viable cell numbers” and the “Effect” value (P. falciparum) was “not able to prevent DNA replication”.

In the case of `Cl.Cl.S=C(NCCCNCCCCCCNCCCNC(=S)NC(c1ccccc1)c1ccccc1)NC(c1ccccc1)c1ccccc1` [Compound 25, 1,14-Bis-{3-[1-(1′,1′-diphenylmethyl)thioureado]}-4,11-diazatetradecane Hydrochloride], the “Cytotoxic response: decrease … (% parasitemia)” value (P. falciparum (3D7)) is reported as “significant cytotoxic response”.

In the case of `Cl.Cl.S=C(NCCCNCCCCCCNCCCNC(=S)NCc1ccccc1)NCc1ccccc1` [Compound 29, 1,14-Bis-{3-[1-(benzyl)thioureado]}-4,11-diazatetradecane Hydrochloride], the “Cytotoxic response: decrease … (% parasitemia)” value (P. falciparum (3D7)) is reported as “significant cytotoxic response” and the “Selectivity towards the parasite compared to HepG2” value (shortened to “Selectivity towards the parasite”) [1] is reported as greater than 500 fold.

With `Cl.Cl.O=C(NCCCNCCCCCCNCCCNC(=O)Nc1ccccc1)Nc1ccccc1` [Compound 30, 1,14-Bis-{3-[1-(phenyl)ureado]}-4,11-diazatetradecane Hydrochloride] the “Cytotoxic response: decrease … (% parasitemia)” value (P. falciparum (3D7)) was “significant cytotoxic response”.

In the case of `CCNC(=O)NCCCNCCCCCCNCCCNC(=O)NCC.Cl.Cl` [Compound 34, 1,14-Bis-{3-[1-(ethyl)ureado]}-4,11-diazatetradecane Hydrochloride], the “Antimalarial activity against P. falciparum IC50, 3D7 (values in μM)” value (P. falciparum strain 3D7; drug sensitive strain 3D7, footnote: IC50 values in μM) is reported as “not active in the μM range”.

With `Cl.Cl.O=C(NCCCNCCCCCCCNCCCNC(=O)NC(c1ccccc1)c1ccccc1)NC(c1ccccc1)c1ccccc1` [Compound 38, 1,15-Bis-{3-[1-(1′,1′-diphenylmethyl)ureado]}-4,12-diazapentadecane Hydrochloride] the “Cytotoxic response: decrease … (% parasitemia)” value (P. falciparum (3D7)) was “significant cytotoxic response”, the “Effect” value (P. falciparum) was “greatest inhibitory affect on DNA replication and nuclear division” and the “Selectivity towards the parasite” value [1] was greater than 500 fold.

With `Cl.Cl.O=C(NCCCNCCCCCCCNCCCNC(=O)NCC(c1ccccc1)c1ccccc1)NCC(c1ccccc1)c1ccccc1` [Compound 39, 1,15-Bis-{3-[1-(2′,2′-diphenylethyl)ureado]}-4,12-diazapentadecane Hydrochloride] the “Cytotoxic response: decrease … (% parasitemia)” value (P. falciparum (3D7)) was “significant cytotoxic response”, the “Effect” value (P. falciparum) was “greatest inhibitory affect on DNA replication and nuclear division” and the “Selectivity towards the parasite” value [1] was greater than 500 fold.
